{"source": "patent US10675267B2", "about": "“Methods for detection and eradication of myeloid leukemia stem cells” (priority 2015, dated 2020)", "key": {"[1]": {"tested_on": "AML-08 human LSC engrafted in NSGS mice", "assay": "De novo AML PRIMAGRAFT model AML-08: FACS engraftment analysis and serial transplantation", "type": "in vivo, mouse", "method": "All animal studies were performed in accordance with UCSD and NIH-equivalent ethical guidelines and were approved by the Institutional Animal Care and Use Committee (IACUC protocol # S06015). For all in vivo experiments, animals of both genders were utilized. Three AML PRIMAGRAFT™ models were established by transplanting AML LSC-enriched cell fractions (either CD34-selected or FACS-purified stem or progenitor cell fractions from primary patient samples) into immunocompromised Rag2^−/−γc^−/−[20] or NOD/SCID-IL2RG mice (Jackson Laboratory) constitutively expressing human SCF, GM-CSF and IL-3 (NSGS) (FIGS. 8A-8D). […]\nMice transplanted with 1-2×10^5 CD34^+ AML LSC-enriched fractions or no-transplant controls were screened for human hematopoietic cell engraftment (CD45^+ cells) in peripheral blood by FACS starting at 7-10 weeks post transplant. At 7-28 weeks post-transplant (7-36 weeks old), mice were euthanized, and peripheral blood and single cell suspensions of hematopoietic organs were analyzed for human cell engraftment by FACS. […]\nFlow cytometric analysis was performed on single cell suspensions from each hematopoietic tissue essentially as for primary patient samples, and frequencies of total live human CD45^+ cells, and CD45^+CD34^+CD38^− Lin^− (stem) and CD45^+CD34^+CD38^+ Lin^− (progenitor) cells were determined in each tissue. […]"}, "[2]": {"tested_on": "human CD34+ cells from treated mice (DNAJB1, MCL1, BCL2, BCLX, SF3B1 transcripts)", "assay": "qRT-PCR / RT-PCR of in vivo splicing alterations in CD34-selected human cells from treated AML PRIMAGRAFT mice", "method": "For in vivo treatments, a 10 mg/mL stock solution of 17S-FD-895 solubilized in DMSO was used. After randomization, AML-engrafted mice were dosed intravenously with 17S-FD-895 (5-10 mg/kg) or vehicle (for AML-08, vehicle control=15% DMSO in PBS; for AML-37, vehicle control=20% DMSO in PBS) three times over a two-week period, with the first dose given on day 1, the second on day 7, and the third on day 14. For preparation of RNA from human LSC-enriched populations, single cell suspensions from spleen and bone marrow were CD34 double-selected (over two LS selection columns, Miltenyi) and 1-2×10^5 cells were collected in lysis buffer or pooled according to treatment group for serial transplantation assays.\nFor qRT-PCR analysis of relative total mRNA expression levels or splice isoform-specific expression analyses, cDNA was synthesized using 50 ng-1 […] of template RNA in 20 μL reaction volumes using the First-Strand SUPERSCRIPT™ III Reverse Transcriptase Supermix (Life Technologies) followed by incubation with RNase H according to the manufacturer's protocol and as described previously. All cDNA products were stored at −20° C. Splice isoform-specific primers for PTK2B-202 were designed to bind to unique exon junctions for this transcript, which lacks exon 24. All primers (Table 2) were diluted to 10 μM working dilutions in DNase/RNase-free water. qRT-PCR was performed in duplicate using cDNA (1 μL reverse transcription product per reaction) on an iCycler (Bio-Rad, Hercules, Calif.) using SYBR® GREENER™ Super Mix (Life Technologies) in 25-μL volume reactions containing 0.2 μM of each forward and reverse primer. Cycling conditions were as follows: 50° C. for 2 minutes, then 95° C. for 8 minutes and 30 seconds, followed by 40 cycles of 95° C. for 15 seconds and 60° C. for 60 seconds. Melting curve analysis was performed on each plate according to the manufacturer's instructions. For standard qRT-PCR, human HPRT mRNA transcript levels were used to normalize Ct values obtained for each gene, and relative expression levels were calculated using the 2^−ddCt method. To ensure validity of results, only Ct values <35 were used in gene expression analyses. All primer sets were tested in a no-template control (NTC) reaction containing only water instead of cDNA, and all gave Ct values >35 in NTC reactions.\nThe 17S-FD-895 dosing regimen was selected as the maximum number of doses possible for the treatment of three experimental groups with the amount of synthesized compound that was available, and is consistent with weekly IV dosing regimens used in clinical trials of spliceosome inhibitory compounds in patients with solid tumors. Animals were euthanized within two hours after delivery of the final dose of 17S-FD-895, and peripheral blood, spleens and bone marrows were collected for analysis of total human cell and stem and progenitor cell engraftment, and for RNA extraction for splice isoform-specific qRT-PCR.\nFor qRT-PCR analysis of relative total mRNA expression levels or splice isoform-specific expression analyses, cDNA was synthesized using 50 ng-1 […] reaction volumes using the First-Strand SUPERSCRIPT™ III Reverse Transcriptase Supermix (Life Technologies) followed by incubation with RNase H according to the manufacturer's protocol and as described previously (Abrahamsson et al., 2009; Crews et al., 2015). All cDNA products were stored at −20° C. Splice isoform-specific primers for PTK2B-202 were designed to bind to unique exon junctions for this transcript, which lacks exon 24. All primers (Supplemental Experimental Procedures Table) were diluted to 10 ∝M working dilutions in DNase/RNase-free water. qRT-PCR was performed in duplicate using cDNA (1 ∝Λ reverse transcription product per reaction) on an iCycler (Bio-Rad, Hercules, Calif.) using SYBR® GREENER™ Super Mix (Life Technologies) in 25-∝A volume reactions containing 0.2 ∝M of each forward and reverse primer. […]"}, "[3]": {"conditions": "CD34+ cells of individual treated mice versus vehicle"}, "[4]": {"conditions": "pooled CD34+ cells used for serial transplantation"}}, "note": "Entries after “also recorded” stand apart in the source; their conditions may differ.", "data": [{"smiles": "CC[C@H](OC)[C@@H](C)[C@H]1O[C@@H]1[C@@H](O)[C@H](C)/C=C/C=C(\\C)[C@H]1OC(=O)C[C@H](O)CC[C@@](C)(O)[C@@H](OC(C)=O)/C=C/[C@@H]1C", "note": "(stereo in doubt) [Formula 17S-FD-895, 17S-FD-895]", "values": [{"measurement": "circulating leukemic cells in secondary recipients", "setting": "[1]; de novo AML model, lower dose", "value": "trend towards decreased circulating leukemic cells"}, {"measurement": "decrease in circulating leukemic burden in secondary recipients", "setting": "[1]; model with high disease burden, serial transplantation, p=0.07", "value": 49, "unit": "%"}, {"measurement": "BCL2L1-L/S expression ratio", "setting": "[2]; CD34+ cells of individual treated mice versus control", "value": "significant reduction"}, {"measurement": "BCL2-L/S expression ratio", "setting": "[2]; [3]", "value": "significant reduction"}, {"measurement": "MCL1-L/S expression ratio", "setting": "[2]; [3]", "value": "significant reduction"}, {"measurement": "SF3B1 mRNA expression", "setting": "[2]; after treatment, individual mice and pooled samples", "value": "unchanged"}, {"measurement": "DNAJB1 intron 2 expression / retention", "setting": "[2]; human CD34+ cells from treated mice versus vehicle", "value": "increased DNAJB1 intron 2 expression; also recorded: increased DNAJB1 intron 2 retention"}, {"measurement": "MCL1-L/S expression ratios, pooled cells", "setting": "[2]; [4]", "value": "dramatically reduced; also recorded: significantly reduced"}, {"measurement": "MCL1 exon 1-3 splicing pattern (RT-PCR)", "setting": "[2]; [4]", "value": "MCL1 exon skipping and intron inclusion"}]}]}
